Measured values: PubChem BioAssay AID248 (DTP/NCI, 2004)
Several values for one entry are separate records, joined by “and”; a condition that tells them apart may be missing. Equal entries are not always repeated. Toxic doses and inconclusive results are not listed.

Tested on: L1210 leukemia ip in BDF1 mice, survival T/C
Test: NCI In Vivo Anticancer Drug Screen. Data for tumor model L1210 Leukemia (intraperitoneal) in B6D2F1 (BDF1) mice
Details: higher = longer survival
How it was run: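 In this screen, tumor-bearing mice given compound are compared to those given vehicle, and their survival values are reported as a treated-to-control quotient.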

OC(C1CO1)C(O)C1CO1 (centres undefined)
T/C (endpoint: mean survival time, dose: 0.25 mg/kg/injection, schedule: Q03HX008 (ip), vehicle: saline): 106 % of control | T/C (endpoint: mean survival time, dose: 0.35 mg/kg/injection, schedule: Q01DX009 (ip), vehicle: saline): 94 % of control | T/C (endpoint: mean survival time, dose: 0.5 mg/kg/injection, schedule: Q01DX009 (ip), vehicle: saline): 104 % of control | T/C (endpoint: mean survival time, dose: 0.5 mg/kg/injection, schedule: Q03HX008 (ip), vehicle: saline): 115 % of control | T/C (endpoint: mean survival time, dose: 0.52 mg/kg/injection, schedule: Q01DX009 (ip), vehicle: saline): 97 % of control | T/C (endpoint: mean survival time, dose: 0.61 mg/kg/injection, schedule: Q04DX003 (ip), vehicle: saline): 104 % of control | T/C (endpoint: mean survival time, dose: 0.65 mg/kg/injection, schedule: Q01DX009 (ip), vehicle: water): 110 % of control | T/C (endpoint: mean survival time, dose: 0.96 mg/kg/injection, schedule: Q01DX001 (ip), vehicle: saline): 119 % of control | T/C (endpoint: mean survival time, dose: 1.0 mg/kg/injection, schedule: Q01DX009 (sc), vehicle: saline): 121 % of control | T/C (endpoint: mean survival time, dose: 1.0 mg/kg/injection, schedule: Q03HX016 (ip), vehicle: saline): 160 % of control | T/C (endpoint: mean survival time, dose: 1.0 mg/kg/injection, schedule: Q03HX024 (ip), vehicle: saline): 170 % of control | T/C (endpoint: mean survival time, dose: 1.0 mg/kg/injection, schedule: Q04DX003 (ip), vehicle: saline): 110 % of control and 116 % of control | T/C (endpoint: mean survival time, dose: 1.25 mg/kg/injection, schedule: Q04DX003 (ip), vehicle: saline): 104 % of control | T/C (endpoint: mean survival time, dose: 1.3 mg/kg/injection, schedule: Q01DX009 (ip), vehicle: saline): 175 % of control | T/C (endpoint: mean survival time, dose: 1.4 mg/kg/injection, schedule: Q01DX001 (ip), vehicle: saline): 119 % of control | T/C (endpoint: mean survival time, dose: 1.4 mg/kg/injection, schedule: Q01DX009 (ip), vehicle: saline): 184 % of control | T/C (endpoint: mean survival time, dose: 1.6 mg/kg/injection, schedule: Q01DX009 (ip), vehicle: water): 102 % of control | T/C (endpoint: mean survival time, dose: 1.87 mg/kg/injection, schedule: Q01DX001 (ip), vehicle: saline): 110 % of control | T/C (endpoint: mean survival time, dose: 2.0 mg/kg/injection, schedule: Q01DX001 (ip), vehicle: saline): 116 % of control | T/C (endpoint: mean survival time, dose: 2.0 mg/kg/injection, schedule: Q03HX008 (ip), vehicle: saline): 227 % of control | T/C (endpoint: mean survival time, dose: 2.0 mg/kg/injection, schedule: Q03HX016 (ip), vehicle: saline): 218 % of control | T/C (endpoint: mean survival time, dose: 2.0 mg/kg/injection, schedule: Q03HX024 (ip), vehicle: saline): 105 % of control | T/C (endpoint: mean survival time, dose: 2.0 mg/kg/injection, schedule: Q04DX003 (ip), vehicle: saline): 123 % of control | T/C (endpoint: mean survival time, dose: 2.0 mg/kg/injection, schedule: Q08DX002 (ip), vehicle: saline): 113 % of control | T/C (endpoint: mean survival time, dose: 2.5 mg/kg/injection, schedule: Q01DX009 (ip), vehicle: saline): 118 % of control | T/C (endpoint: mean survival time, dose: 2.5 mg/kg/injection, schedule: Q04DX003 (ip), vehicle: saline): 105 % of control and 115 % of control | T/C (endpoint: mean survival time, dose: 3.0 mg/kg/injection, schedule: Q01DX009 (ip), vehicle: saline): 163 % of control and 186 % of control and 193 % of control | T/C (endpoint: mean survival time, dose: 3.0 mg/kg/injection, schedule: Q01DX009 (ip), vehicle: water): 224 % of control | T/C (endpoint: mean survival time, dose: 3.2 mg/kg/injection, schedule: Q01DX009 (ip), vehicle: saline): 120 % of control | T/C (endpoint: mean survival time, dose: 3.3 mg/kg/injection, schedule: Q01DX001 (ip), vehicle: saline): 154 % of control | T/C (endpoint: mean survival time, dose: 3.75 mg/kg/injection, schedule: Q01DX001 (ip), vehicle: saline): 118 % of control | T/C (endpoint: mean survival time, dose: 4.0 mg/kg/injection, schedule: Q01DX001 (sc), vehicle: saline): 115 % of control | T/C (endpoint: mean survival time, dose: 4.0 mg/kg/injection, schedule: Q01DX009 (ip), vehicle: saline): 160 % of control | T/C (endpoint: mean survival time, dose: 4.0 mg/kg/injection, schedule: Q04DX003 (ip), vehicle: saline): 168 % of control and 170 % of control and 198 % of control | T/C (endpoint: mean survival time, dose: 4.0 mg/kg/injection, schedule: Q08DX002 (ip), vehicle: saline): 155 % of control | T/C (endpoint: mean survival time, dose: 4.6 mg/kg/injection, schedule: Q01DX001 (ip), vehicle: saline): 113 % of control | T/C (endpoint: mean survival time, dose: 4.6 mg/kg/injection, schedule: Q01DX009 (ip), vehicle: saline): 89 % of control | T/C (endpoint: mean survival time, dose: 4.6 mg/kg/injection, schedule: Q04DX003 (ip), vehicle: saline): 242 % of control and 112 % of control | T/C (endpoint: mean survival time, dose: 4.6 mg/kg/injection, schedule: Q08DX002 (ip), vehicle: saline): 163 % of control | T/C (endpoint: mean survival time, dose: 5.0 mg/kg/injection, schedule: Q01DX001 (ip), vehicle: saline): 214 % of control | T/C (endpoint: mean survival time, dose: 5.0 mg/kg/injection, schedule: Q01DX009 (ip), vehicle: saline): 95 % of control and 204 % of control and 255 % of control | T/C (endpoint: mean survival time, dose: 5.0 mg/kg/injection, schedule: Q01DX009 (ip), vehicle: water): 108 % of control | T/C (endpoint: mean survival time, dose: 5.0 mg/kg/injection, schedule: Q04DX003 (ip), vehicle: saline): 124 % of control | T/C (endpoint: mean survival time, dose: 6.7 mg/kg/injection, schedule: Q04DX003 (ip), vehicle: saline): 195 % of control and 227 % of control | T/C (endpoint: mean survival time, dose: 7.0 mg/kg/injection, schedule: Q01DX001 (ip), vehicle: saline): 157 % of control and 240 % of control and 117 % of control | T/C (endpoint: mean survival time, dose: 7.0 mg/kg/injection, schedule: Q01DX009 (ip), vehicle: saline): 97 % of control and 115 % of control | T/C (endpoint: mean survival time, dose: 7.0 mg/kg/injection, schedule: Q04DX003 (ip), vehicle: saline): 284 % of control and 122 % of control | T/C (endpoint: mean survival time, dose: 7.0 mg/kg/injection, schedule: Q08DX002 (ip), vehicle: saline): 191 % of control | T/C (endpoint: mean survival time, dose: 7.5 mg/kg/injection, schedule: Q01DX001 (ip), vehicle: saline): 185 % of control | T/C (endpoint: mean survival time, dose: 7.5 mg/kg/injection, schedule: Q01DX009 (ip), vehicle: saline): 169 % of control | T/C (endpoint: mean survival time, dose: 8.0 mg/kg/injection, schedule: Q01DX001 (ip), vehicle: saline): 158 % of control | T/C (endpoint: mean survival time, dose: 8.0 mg/kg/injection, schedule: Q01DX001 (oral), vehicle: saline): 200 % of control | T/C (endpoint: mean survival time, dose: 8.0 mg/kg/injection, schedule: Q04DX003 (ip), vehicle: saline): 300 % of control and 304 % of control | T/C (endpoint: mean survival time, dose: 8.0 mg/kg/injection, schedule: Q08DX002 (ip), vehicle: saline): 193 % of control | T/C (endpoint: mean survival time, dose: 10.0 mg/kg/injection, schedule: Q01DX009 (ip), vehicle: saline): 88 % of control | T/C (endpoint: mean survival time, dose: 10.0 mg/kg/injection, schedule: Q04DX003 (ip), vehicle: saline): 404 % of control and 448 % of control and 471 % of control | T/C (endpoint: mean survival time, dose: 10.6 mg/kg/injection, schedule: Q01DX001 (ip), vehicle: saline): 308 % of control and 105 % of control | T/C (endpoint: mean survival time, dose: 11.25 mg/kg/injection, schedule: Q01DX009 (ip), vehicle: saline): 91 % of control | T/C (endpoint: mean survival time, dose: 12.5 mg/kg/injection, schedule: Q01DX009 (ip), vehicle: saline): 110 % of control | T/C (endpoint: mean survival time, dose: 15.0 mg/kg/injection, schedule: Q04DX003 (ip), vehicle: saline): 161 % of control and 172 % of control and 368 % of control | T/C (endpoint: mean survival time, dose: 16.0 mg/kg/injection, schedule: Q01DX001 (ip), vehicle: saline): 368 % of control | T/C (endpoint: mean survival time, dose: 16.0 mg/kg/injection, schedule: Q01DX001 (sc), vehicle: saline): 180 % of control | T/C (endpoint: mean survival time, dose: 24.0 mg/kg/injection, schedule: Q04DX003 (ip), vehicle: saline): 191 % of control | T/C (endpoint: mean survival time, dose: 64.0 mg/kg/injection, schedule: Q01DX001 (ip), vehicle: saline): 97 % of control | T/C (endpoint: mean survival time, dose: 118.0 mg/kg/injection, schedule: Q08DX002 (ip), vehicle: saline): 105 % of control | T/C (endpoint: median survival time, dose: 1.0 mg/kg/injection, schedule: Q01DX009 (sc), vehicle: water): 111 % of control | T/C (endpoint: median survival time, dose: 2.0 mg/kg/injection, schedule: Q01DX009 (ip), vehicle: water): 188 % of control | T/C (endpoint: median survival time, dose: 2.0 mg/kg/injection, schedule: Q04DX003 (ip), vehicle: water): 122 % of control | T/C (endpoint: median survival time, dose: 2.0 mg/kg/injection, schedule: Q04DX003 (sc), vehicle: water): 111 % of control | T/C (endpoint: median survival time, dose: 2.5 mg/kg/injection, schedule: Q01DX001 (ip), vehicle: water): 122 % of control | T/C (endpoint: median survival time, dose: 4.0 mg/kg/injection, schedule: Q01DX009 (ip), vehicle: water): 116 % of control | T/C (endpoint: median survival time, dose: 4.0 mg/kg/injection, schedule: Q01DX009 (sc), vehicle: water): 105 % of control | T/C (endpoint: median survival time, dose: 4.0 mg/kg/injection, schedule: Q04DX003 (ip), vehicle: water): 166 % of control | T/C (endpoint: median survival time, dose: 4.0 mg/kg/injection, schedule: Q04DX003 (sc), vehicle: water): 155 % of control | T/C (endpoint: median survival time, dose: 8.0 mg/kg/injection, schedule: Q04DX003 (ip), vehicle: water): 94 % of control | T/C (endpoint: median survival time, dose: 8.0 mg/kg/injection, schedule: Q04DX003 (sc), vehicle: water): 100 % of control | T/C (endpoint: median survival time, dose: 10.0 mg/kg/injection, schedule: Q01DX001 (ip), vehicle: water): 154 % of control | T/C (endpoint: median survival time, dose: 20.0 mg/kg/injection, schedule: Q01DX001 (ip), vehicle: water): 103 % of control | T/C (endpoint: median survival time, dose: 40.0 mg/kg/injection, schedule: Q01DX001 (ip), vehicle: water): 99 % of control
